Test [1] concerns the target Dual specificity tyrosine-phosphorylation-regulated kinase 1A (Homo sapiens, UniProt Q13627).
Test [2] concerns the target T1, NUAK family SNF1-like kinase 2 (Homo sapiens, UniProt Q9H093).
T1 sequence (Q9H093 whole entry): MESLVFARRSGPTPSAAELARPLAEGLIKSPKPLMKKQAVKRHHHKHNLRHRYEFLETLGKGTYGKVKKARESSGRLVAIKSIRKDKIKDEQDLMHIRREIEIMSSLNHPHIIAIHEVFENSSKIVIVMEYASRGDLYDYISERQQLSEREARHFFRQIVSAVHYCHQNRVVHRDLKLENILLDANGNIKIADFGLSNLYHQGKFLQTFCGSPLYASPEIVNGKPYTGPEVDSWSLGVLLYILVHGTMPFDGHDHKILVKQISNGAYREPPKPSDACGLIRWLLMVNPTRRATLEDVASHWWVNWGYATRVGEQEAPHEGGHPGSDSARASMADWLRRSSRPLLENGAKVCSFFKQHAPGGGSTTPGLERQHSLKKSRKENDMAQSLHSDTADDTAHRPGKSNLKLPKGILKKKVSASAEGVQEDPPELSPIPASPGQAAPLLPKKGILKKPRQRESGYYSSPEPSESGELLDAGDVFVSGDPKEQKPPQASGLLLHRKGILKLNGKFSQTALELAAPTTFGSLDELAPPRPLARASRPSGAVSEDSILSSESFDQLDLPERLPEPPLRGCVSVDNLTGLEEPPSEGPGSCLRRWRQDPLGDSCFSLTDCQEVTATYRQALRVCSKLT

Test [3] has as its target cAMP-dependent protein kinase type II-alpha regulatory subunit (Homo sapiens, UniProt P13861).
Test [4] deals with Fibroblast growth factor receptor 1 (Homo sapiens, UniProt P11362).
Fibroblast growth factor receptor 1, sequence (P11362 whole entry): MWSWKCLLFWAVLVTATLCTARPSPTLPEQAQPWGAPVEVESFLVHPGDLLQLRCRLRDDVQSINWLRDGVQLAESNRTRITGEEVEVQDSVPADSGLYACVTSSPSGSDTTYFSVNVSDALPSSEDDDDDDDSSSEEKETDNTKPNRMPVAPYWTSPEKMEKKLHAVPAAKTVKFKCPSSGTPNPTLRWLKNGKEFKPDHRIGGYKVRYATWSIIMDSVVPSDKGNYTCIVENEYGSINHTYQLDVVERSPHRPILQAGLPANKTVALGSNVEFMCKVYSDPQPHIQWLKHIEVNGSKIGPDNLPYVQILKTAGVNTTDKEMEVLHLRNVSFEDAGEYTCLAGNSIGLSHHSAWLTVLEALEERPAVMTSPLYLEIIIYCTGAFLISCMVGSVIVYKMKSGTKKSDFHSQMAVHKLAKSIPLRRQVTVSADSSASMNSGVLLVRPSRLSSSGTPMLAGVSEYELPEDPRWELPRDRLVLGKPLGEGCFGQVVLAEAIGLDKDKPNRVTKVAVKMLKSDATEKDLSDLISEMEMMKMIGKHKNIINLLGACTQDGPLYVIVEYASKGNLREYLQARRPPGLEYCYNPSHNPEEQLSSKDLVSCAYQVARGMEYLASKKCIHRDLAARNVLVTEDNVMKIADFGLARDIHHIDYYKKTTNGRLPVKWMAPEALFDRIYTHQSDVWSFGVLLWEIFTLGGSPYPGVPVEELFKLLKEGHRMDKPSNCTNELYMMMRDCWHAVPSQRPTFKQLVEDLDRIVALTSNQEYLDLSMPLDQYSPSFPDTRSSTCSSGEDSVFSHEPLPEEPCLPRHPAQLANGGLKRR
The target of test [5] is T2, Probable ATP-dependent RNA helicase DDX6 (Homo sapiens, UniProt P26196).
T2 sequence (P26196 whole entry): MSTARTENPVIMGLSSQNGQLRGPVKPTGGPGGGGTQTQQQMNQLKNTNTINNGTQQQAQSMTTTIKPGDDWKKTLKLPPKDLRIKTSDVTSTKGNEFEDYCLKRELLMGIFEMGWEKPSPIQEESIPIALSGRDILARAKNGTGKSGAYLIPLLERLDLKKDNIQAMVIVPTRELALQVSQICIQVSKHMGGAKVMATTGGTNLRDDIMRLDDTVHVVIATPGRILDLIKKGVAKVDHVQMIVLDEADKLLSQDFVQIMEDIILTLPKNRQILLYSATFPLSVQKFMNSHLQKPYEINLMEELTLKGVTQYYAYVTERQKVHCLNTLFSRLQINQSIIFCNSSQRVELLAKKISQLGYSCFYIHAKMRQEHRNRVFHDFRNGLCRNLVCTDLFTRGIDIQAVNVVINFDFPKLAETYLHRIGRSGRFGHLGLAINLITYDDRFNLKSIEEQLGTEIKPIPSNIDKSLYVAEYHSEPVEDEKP

In test [6] the target is T3, Exosome RNA helicase MTR4 (Homo sapiens, UniProt P42285).
T3 sequence (P42285 whole entry): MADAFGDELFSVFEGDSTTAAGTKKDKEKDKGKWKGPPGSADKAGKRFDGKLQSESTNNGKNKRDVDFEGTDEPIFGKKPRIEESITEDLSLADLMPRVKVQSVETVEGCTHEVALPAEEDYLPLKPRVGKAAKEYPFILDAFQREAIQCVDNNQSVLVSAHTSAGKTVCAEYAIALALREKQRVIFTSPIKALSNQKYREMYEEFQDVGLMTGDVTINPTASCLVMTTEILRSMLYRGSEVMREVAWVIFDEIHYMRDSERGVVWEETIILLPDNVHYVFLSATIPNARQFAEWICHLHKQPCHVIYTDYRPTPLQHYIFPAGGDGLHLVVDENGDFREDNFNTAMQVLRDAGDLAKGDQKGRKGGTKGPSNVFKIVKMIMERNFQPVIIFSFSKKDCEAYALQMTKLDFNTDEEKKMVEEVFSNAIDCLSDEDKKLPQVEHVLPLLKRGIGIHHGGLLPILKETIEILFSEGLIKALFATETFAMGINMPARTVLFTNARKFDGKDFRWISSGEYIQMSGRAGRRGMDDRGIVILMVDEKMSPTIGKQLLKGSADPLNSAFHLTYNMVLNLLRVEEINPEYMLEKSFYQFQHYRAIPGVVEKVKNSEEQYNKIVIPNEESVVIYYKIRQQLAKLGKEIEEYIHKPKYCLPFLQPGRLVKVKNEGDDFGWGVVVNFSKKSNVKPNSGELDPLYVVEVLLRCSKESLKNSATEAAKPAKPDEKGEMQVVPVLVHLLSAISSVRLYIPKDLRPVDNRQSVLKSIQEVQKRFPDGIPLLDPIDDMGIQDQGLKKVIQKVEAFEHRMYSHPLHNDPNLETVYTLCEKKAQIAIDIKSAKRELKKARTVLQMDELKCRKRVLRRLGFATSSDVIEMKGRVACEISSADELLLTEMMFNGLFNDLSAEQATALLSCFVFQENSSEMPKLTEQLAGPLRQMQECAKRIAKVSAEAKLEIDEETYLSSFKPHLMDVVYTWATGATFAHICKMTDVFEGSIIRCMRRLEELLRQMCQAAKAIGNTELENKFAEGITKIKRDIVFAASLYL

Usually Kd stands for a measure of binding affinity in units of concentration.

Calls of active or inactive are those of the source.
Note: in the data inactive means no Kd found up to 30 µM.

cAMP-dependent protein kinase type II-alpha regulatory subunit, sequence (P13861 whole entry): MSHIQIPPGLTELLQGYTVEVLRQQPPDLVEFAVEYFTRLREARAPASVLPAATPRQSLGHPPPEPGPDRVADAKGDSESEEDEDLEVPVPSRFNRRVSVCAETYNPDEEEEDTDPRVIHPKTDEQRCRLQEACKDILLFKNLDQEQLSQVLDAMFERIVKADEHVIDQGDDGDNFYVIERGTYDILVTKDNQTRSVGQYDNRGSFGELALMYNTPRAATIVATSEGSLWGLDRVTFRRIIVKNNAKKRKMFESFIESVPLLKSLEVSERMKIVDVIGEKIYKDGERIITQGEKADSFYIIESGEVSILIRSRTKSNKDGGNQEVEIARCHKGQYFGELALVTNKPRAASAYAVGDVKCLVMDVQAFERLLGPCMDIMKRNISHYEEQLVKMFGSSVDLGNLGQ

As for `C[C@H]1CNCCCN1S(=O)(=O)c1cccc2cncc(F)c12`, the Kd in test [1], in test [2], in test [3], in test [4], in test [5] and in test [6] was > 30 µM (inactive) in each case.
On to `CC(=O)c1cnc2ccc(-c3cc(Cl)c(O)c(Cl)c3)nc2c1N[C@H]1CC[C@H](CN(C)C)CC1`, for which the Kd in test [1] was 0.01 µM (active); in test [2] it was > 30 µM (inactive); in test [3] it was > 30 µM (inactive); in test [4] it was > 30 µM (inactive); in test [5], > 30 µM (inactive); in test [6] it was > 30 µM (inactive).
As to `C=CC(=O)N1CCC[C@H](n2c(=O)n(-c3ccc(Oc4ccccc4)cc3)c3c(N)ncnc32)C1`, the Kd in test [1], in test [2], in test [3], in test [4], in test [5] and in test [6] was > 30 µM (inactive) in each case.
As for `COCc1c(-c2ccc(NC(=O)Nc3cc(C(F)(F)F)ccc3F)c(F)c2)c2c(N)ncnn2c1CN1CCOCC1`, the Kd in test [1] is > 30 µM (inactive); in test [2] it was > 30 µM (inactive); in test [3], > 30 µM (inactive); in test [4] it was 0.04 µM (active); in test [5], > 30 µM (inactive); in test [6] it was > 30 µM (inactive).
On to `Nc1ncnc2c1c(-c1cccc(OCc3ccccc3)c1)cn2[C@H]1C[C@@H](CN2CCC2)C1` [AEW-541], for which the Kd in test [1], in test [2], in test [3], in test [4], in test [5] and in test [6] was > 30 µM (inactive) throughout.
For `Cc1nc(NC(=O)N2CCC[C@H]2C(N)=O)sc1-c1ccnc(C(C)(C)C(F)(F)F)c1` [ALPELISIB], the Kd in test [1], in test [2], in test [3], in test [4], in test [5] and in test [6] was > 30 µM (inactive) in each case.
Regarding `Cc1csc(-c2nnc(Nc3ccc(Oc4ncccc4-c4ccnc(N)n4)cc3)c3ccccc23)c1` [AMG-900], the Kd in test [1], in test [2], in test [3], in test [4], in test [5] and in test [6] was > 30 µM (inactive) throughout.
With `C=CC(=O)Nc1cc2c(Nc3ccc(F)c(Cl)c3)ncnc2cc1C#CC(C)(C)N1CCN(C)CC1` [AV-412 FREE BASE], the Kd in test [1], in test [2], in test [3], in test [4], in test [5] and in test [6] was > 30 µM (inactive) each time.
Take `COc1cc([C@@H]2c3cc4c(cc3[C@H](O)[C@H]3COC(=O)[C@@H]23)OCO4)cc(OC)c1OC` [AXL-1717]: the Kd in test [1], in test [2], in test [3], in test [4], in test [5] and in test [6] was > 30 µM (inactive) in each case.
`Cc1cc(C(=O)NOCCO)c(Nc2ccc(I)cc2F)n(C)c1=O` [AZD-8330]: the Kd in test [1], in test [2], in test [3], in test [4], in test [5] and in test [6] was > 30 µM (inactive) throughout.
`Cn1cnc2c(F)c(Nc3ccc(Br)cc3F)c(C(=O)NOCCO)cc21` [BINIMETINIB]: the Kd in test [1], in test [2], in test [3], in test [4], in test [5] and in test [6] was > 30 µM (inactive) in each case.
In the case of `CCn1c(C(=O)N(C2CC2)C2CC2)cc2c3c(ncn3C)c(Nc3cc(C)n(C)n3)nc21` [BMS-911543], the Kd in test [1], in test [2], in test [3], in test [4], in test [5] and in test [6] was > 30 µM (inactive) each time.
With `COc1cc2ncnc(Oc3cccc(NC(=O)Nc4cc(C(C)(C)C(F)(F)F)on4)c3)c2cc1OC` [CEP-32496], the Kd in test [1], in test [2], in test [3], in test [4], in test [5] and in test [6] was > 30 µM (inactive) throughout.
For the compound `Cc1cc(Nc2ncc(Cl)c(Nc3ccccc3S(=O)(=O)C(C)C)n2)c(OC(C)C)cc1C1CCNCC1` [CERITINIB], the Kd in test [1], in test [2], in test [3], in test [4], in test [5] and in test [6] was > 30 µM (inactive) in each case.
Regarding `COc1c(OCCCN2CCOCC2)ccc2c1N=C(NC(=O)c1cnc(N)nc1)N1CCN=C21` [COPANLISIB], the Kd in test [1], in test [2], in test [3], in test [4], in test [5] and in test [6] was > 30 µM (inactive) in each case.
For `COCC(=O)NC/C=C/c1ccc2ncnc(Nc3ccc(Oc4ccc(C)nc4)c(C)c3)c2c1` [CP-724714], the Kd in test [1], in test [2], in test [3], in test [4], in test [5] and in test [6] was > 30 µM (inactive) each time.
As to `C#Cc1cccc(Nc2ncnc3cc(OC)c(OCCCCCCC(=O)NO)cc23)c1` [CUDC-101], the Kd in test [1], in test [2], in test [3], in test [4], in test [5] and in test [6] was > 30 µM (inactive) throughout.
Consider `C[C@@H](N)c1ccc(C(=O)Nc2ccnc3[nH]ccc23)cc1` [Y-39983], for which the Kd in test [1], in test [2], in test [4], in test [5] and in test [6] was > 30 µM (inactive) each time.

The values above are taken from ChEMBL document CHEMBL3991601, “The target landscape of clinical kinase drugs” (Science, 2017).
